Literature values, collected in article PMC9847093 (Protein Science : A Publication of the Protein Society, 2023).

Conditions: for pKa of monomers used to calculate theoretical number of charges per AOS: M and G monomers; for pKa: ref Draget et al., [1994]

| pKa of monomers used to calculate theoretical number of charges per AOS | pKa | Structure (SMILES) |
| --- | --- | --- |
| 3.38 | 3.4 | O=C(O)[C@H]1O[C@@H](O)[C@@H](O)[C@@H](O)[C@@H]1O [M, β‐D‐mannuronate] |
| 3.65 | 3.7 | O=C(O)[C@@H]1O[C@@H](O)[C@@H](O)[C@@H](O)[C@@H]1O [G, α‐L‐guluronate] |
